Assay results as given in patent US20220386606A1, “SPECIFICALLY SUBSTITUTED 3-PHENYL-5-SPIROCYCLOPENTYL-3-PYRROLIN-2-ONES AND THEIR USE AS HERBICIDES” (Bayer Aktiengesellschaft, priority 2019, published 2022).

Experiments:
LOLRI [1] = assay: Pre-emergence herbicidal action against LOLRI (Table 8, titled post-emergence at 320 g/ha); type: in vivo, Lolium rigidum; conditions: table stands in the pre-emergence section
Method in brief: (§1)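 Pots of sandy loam with covered seeds receive a surface application of compound (WP or EC; aqueous, 600 to 800 L/ha, 0.2% wetting agent) before emergence. Under good greenhouse growth conditions, percent damage is judged by eye at 3 weeks against untreated controls.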

AVEFA [2] = assay: Pre-emergence herbicidal action against AVEFA; type: in vivo, Avena fatua; conditions: 320 g/ha, scored visually after 3 weeks vs untreated controls
Method in brief: as §1

DIGSA [3] = assay: Post-emergence herbicidal action against DIGSA; type: in vivo, Digitaria sanguinalis; conditions: 80 g/ha, visual assessment about 3 weeks after treatment vs untreated controls
Method in brief: (§2)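 Plants at the one-leaf stage receive a foliar spray of the formulated compound, with a 600 to 800 l/ha water rate and 0.2% wetting agent. Percent activity is judged by eye after roughly 3 weeks in the greenhouse.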

DIGSA [4] = assay: Pre-emergence herbicidal action against DIGSA; type: in vivo, Digitaria sanguinalis; conditions: 320 g/ha, scored visually after 3 weeks vs untreated controls
Method in brief: as §1

ALOMY [5] = assay: Pre-emergence herbicidal action against ALOMY; type: in vivo, Alopecurus myosuroides; conditions: 320 g/ha, scored visually after 3 weeks vs untreated controls
Method in brief: as §1

SETVI [6] = assay: Pre-emergence herbicidal action against SETVI; type: in vivo, Setaria viridis; conditions: 320 g/ha, scored visually after 3 weeks vs untreated controls
Method in brief: as §1

ECHCG [7] = assay: Post-emergence herbicidal action against ECHCG; type: in vivo, Echinochloa crus-galli; conditions: 80 g/ha, visual assessment about 3 weeks after treatment vs untreated controls
Method in brief: as §2

LOLRI [8] = assay: Post-emergence herbicidal action against LOLRI; type: in vivo, Lolium rigidum; conditions: 80 g/ha, visual assessment about 3 weeks after treatment vs untreated controls
Method in brief: as §2

VIOTR = assay: Pre-emergence herbicidal action against VIOTR; type: in vivo, Viola tricolor; conditions: 320 g/ha
Method in brief: as §1

ECHCG [9] = assay: Pre-emergence herbicidal action against ECHCG; type: in vivo, Echinochloa crus-galli; conditions: 320 g/ha, scored visually after 3 weeks vs untreated controls
Method in brief: as §1

SETVI [10] = assay: Post-emergence herbicidal action against SETVI; type: in vivo, Setaria viridis; conditions: 80 g/ha, visual assessment about 3 weeks after treatment vs untreated controls
Method in brief: as §2

ALOMY [11] = assay: Post-emergence herbicidal action against ALOMY; type: in vivo, Alopecurus myosuroides; conditions: 80 g/ha, visual assessment after about 3 weeks
Method in brief: as §2

MATIN = assay: Pre-emergence herbicidal action against MATIN; type: in vivo; conditions: 320 g/ha
Excerpt: (§3) Seeds of monocotyledonous and dicotyledonous weed plants and crop plants are laid out in sandy loam soil in wood-fiber pots and covered with soil. The compounds of the invention, formulated in the form of wettable powders (WP) or as emulsion concentrates (EC), are then applied to the surface of the covering soil as aqueous suspension or emulsion at a water application rate equating to 600 to 800 L/ha with addition of 0.2% wetting agent.
(§4) After the treatment, the pots are placed in a greenhouse and kept under good growth conditions for the trial plants. The damage to the test plants is scored visually after a test period of 3 weeks by comparison with untreated controls (herbicidal activity in percent (%): 100% activity=the plants have died, 0% activity=like control plants).

AVEFA [12] = assay: Post-emergence herbicidal action against AVEFA; type: in vivo, Avena fatua; conditions: 80 g/ha, visual assessment after about 3 weeks
Method in brief: as §2

AMARE = assay: Pre-emergence herbicidal action against AMARE; type: in vivo, Amaranthus retroflexus; conditions: 320 g/ha
Excerpt: as §3, §4

VERPE = assay: Pre-emergence herbicidal action against VERPE; type: in vivo, Veronica persica; conditions: 320 g/ha
Excerpt: as §3, §4

SMILES	Pre-emergence herbicidal action against LOLRI in % (LOLRI [1]) [%]	Pre-emergence action against AVEFA in % (AVEFA [2]) [%]	Post-emergence action against DIGSA in % (DIGSA [3]) [%]	Pre-emergence action against DIGSA in % (DIGSA [4]) [%]	Pre-emergence action against ALOMY in % (ALOMY [5]) [%]	Pre-emergence action against SETVI in % (SETVI [6]) [%]	Post-emergence action against ECHCG in % (ECHCG [7]) [%]	Post-emergence action against LOLRI in % (LOLRI [8]) [%]	Pre-emergence action against VIOTR in % (VIOTR) [%]	Pre-emergence action against ECHCG in % (ECHCG [9]) [%]	Post-emergence action against SETVI in % (SETVI [10]) [%]	Post-emergence action against ALOMY in % (ALOMY [11]) [%]	Pre-emergence action against MATIN in % (MATIN) [%]	Post-emergence action against AVEFA in % (AVEFA [12]) [%]	Pre-emergence action against AMARE in % (AMARE) [%]	Pre-emergence action against VERPE in % (VERPE) [%]
C=CCOCC1CCC2(C1)NC(=O)C(c1c(C)cc(C#CC)cc1Br)=C2O (centres unmarked) [Example I-67]	100	80	90	100	100	100	90	90	100	100	90	100	80			
C#CCOCC1CCC2(C1)NC(=O)C(c1c(C)cc(C#CC)cc1OC)=C2O (centres unmarked) [Example I-77]	100	100	90	100	100	100	100	90		100	100	100	80	90	100	
CC#Cc1cc(C)c(C2=C(O)C3(CCC(COCCC)C3)NC2=O)c(OC)c1 (centres unmarked) [Example I-59]	100		100	100	100	100	100	90	100	100	100	100	80	90	100	
CC#Cc1cc(C)c(C2=C(OC(=O)C(C)C)C3(CCC(COCC)C3)NC2=O)c(Br)c1 (centres unmarked) [Example P-37]	100	80	100	100	100	100	100	100	100	100	100	100		90	100	80
C#CCOCC1CCC2(C1)NC(=O)C(c1c(F)cc(C#CC)cc1OC)=C2O (centres unmarked) [Example I-75]	100	100	90	100	90	100	100	90		90	100	90	90	90	80	
CC#Cc1cc(F)c(C2=C(OC(=O)OCC)C3(CCC(COCCC)C3)NC2=O)c(OC)c1 (centres unmarked) [Example P-84]	100	80	90	100	100	100	100	80	80	100	100		80	80		
C#CCOCC1CCC2(C1)NC(=O)C(c1c(C)cc(C#CC)cc1OC)=C2OC(=O)OCC (centres unmarked) [Example P-101]	100	100	90	100	100	100	100	100	80	100	100	100	80	80	100	
C#CCOCC1CCC2(C1)NC(=O)C(c1c(C)cc(C#CC)cc1Cl)=C2OC(=O)OCC (centres unmarked) [Example P-99]	100	100	90	100	100	100	100	90	100	100	100	100		80	100	100
CC#Cc1cc(C)c(C2=C(OC(=O)C(C)C)C3(CCC(COCC)C3)NC2=O)c(F)c1 (centres unmarked) [Example P-56]	100	80	100	100	100	100	100	100	100	100	100	100	80	90	80	
